Results: US20220169989A1, “HUMAN CARDIOMYOCYTE SEPARATION REAGENT, CULTURE MEDIUM, SEPARATION METHOD, AND CULTURE METHOD” (FUWAI HOSPITAL CHINESE ACADEMY OF MEDICAL SCIENCES, priority 2019, published 2022)
≈ marks a conversion by molar mass, not a printed value.

How the values were obtained:
human cardiomyocytes [1] = experiment: Effect of myosin inhibitors BTS and MYK-461 on survival rate (Example 2.5); format: cell-based; details: MEM-HEPES-GlutaMAX + 10% FBS, p<0.05
Description: In order to explore whether there are other myosin ATPase inhibitors besides BDM and (−)-Blebbistatin that can improve the rate of rod-shaped cardiomyocytes, the effects of (−)-Blebbistatin, BTS, and MYK-461 on the activity of cardiomyocytes were compared. For the isolated human cardiomyocytes, MEM-4-hydroxyethyl piperazine ethanesulfonic acid-GlutaMAX medium comprising 10 μM (−)-Blebbistatin, BTS (at concentrations of 5 μM, 10 μM, 20 μM, 30 μM, 40 μM, or 50 μM, respectively), or MYK-461 (at concentrations of 0.5 μM, 1 μM, 2 μM, 5 μM, 10 μM, or 20 μM, respectively) respectively was used, and 10% fetal bovine serum, 100 U/ml penicillin and 100 μg/ml streptomycin were added to the medium.

human cardiomyocytes [2] = experiment: Human cardiomyocyte isolation test (calcium-free solution); format: cell-based
Description: The cardiomyocyte isolation process generally comprises tissue transport and sectioning, calcium-free perfusion, enzyme solution digestion and cell collection. In the process, the calcium-free Tyrode's solution (calcium-free solution) was the main reagent used in the isolation process, for calcium-free perfusion, enzyme solution digestion and cell collection. The test was conducted in this invention by reference to the cardiomyocyte isolation experimental protocol described in Liang Chen, Guang-ran Guo, Man Rao, Kai Chen, Jiang-ping Song and Sheng-shou Hu, “A Modified Method for Isolation of Human Cardiomyocytes to Model Cardiac Diseases.”, Journal of Translational Medicine (2018). Specific steps were as follows:
An excised left atrial appendage was immediately placed in an organ preservation solution (manufactured by the University of Wisconsin, USA) (about 4° C.), and quickly transferred it to a 60 mm cell culture dish in a super clean bench, an organ preservation solution (about 4° C.) was added, and the culture dish was placed on an ice box pre-cooled in a refrigerator at −20° C. Scissors were used to remove excess fat and trim it, the tissue was adhered to a specimen stage, and a microtome (Leica VT1200S, Germany) was used to slice the tissue (300 μm) which was then manually cut into pieces in the super clean bench. The cut atrial appendage pieces were divided into three groups, and the tissues were decalcified three times using the calcium-free solution of the present invention. 15-20 ml calcium-free solution was added to an Erlenmeyer flask for calcium-free perfusion for three times. The Erlenmeyer flask was shaken at room temperature, the calcium-free solution was replaced with fresh one after 2 min and 3 min respectively, and the third calcium-free perfusion time is 4 min. After finishing the calcium-free perfusion, the calcium-free solution was discarded and enzyme solution 1 (preheated to 37° C.) formulated from the corresponding calcium-free solution was added respectively. […] The enzyme solution was collected into a 15 ml centrifuge tube, fresh enzyme solution 1 was added to the Erlenmeyer flask, and digestion was still performed in the water bath kettle. The collected enzyme solution was placed in a pre-cooled 4° C. centrifuge (Eppendorf centrifuge 5804R, Germany) for centrifugation (100×g, 1 min), and the supernatant was discarded, followed by observing whether there were cardiomyocytes in the precipitate at the tube bottom, and determining the proportion of rod-shaped cells. The second digestion is the same as the first digestion. When the rate of rod-shaped cardiomyocytes contained in the precipitate is 70% or more, the enzyme solution 1 was replaced with enzyme solution 2 formulated from the calcium-free solution used in the enzyme solution 1, and digestion was continued. This time, cardiomyocytes in the turbid enzyme solution were collected by centrifugation (4° C., 100×g, 1 min) and then resuspending cells in a 3 ml transport solution.
In the process, the calcium-free solution was a calcium-free solution comprising 5 μM (−)-Blebbistatin, 10 μM (−)-Blebbistatin, and 20 mM BDM, respectively.

[3] = water solubility, known property; cited from earlier work
human cardiomyocytes [4] = experiment: In vitro culture of isolated human cardiomyocytes after recalcification; format: cell-based; details: 10 μM in isolation and in M199 + 10% FBS culture; cultured for 6 days; higher than 20 mM BDM group, p<0.05
Description: In addition, in order to observe whether the cell states were different when the human cardiomyocytes isolated using two calcium-free solutions (20 mM BDM and 10 μM (−)-Blebbistatin) were cultured in vitro, we performed recalcification on the isolated human cardiomyocytes. Specifically, it was difficult for human cardiomyocytes to survive in an environment without calcium ions, and the present invention adopted a 5-step gradient recalcification method to restore the calcium ion concentration of human cardiomyocytes. The concentration gradients of CaCl2 (with a stock concentration of 30 mM) added to the cell collection solution were 0.08 mM (5 min), 0.25 mM (5 min), 0.5 mM (5 min), 1 mM (5 min), and 1.8 mM (15 min) in order. The human cardiomyocytes isolated in the 20 mM BDM group were cultured using M199 medium with addition of 10% fetal bovine serum (FBS) (note: the concentration percentage of fetal bovine serum in the examples and corresponding figures was volume percentage), 100 U/ml penicillin, 100 μg/ml streptomycin and 20 mM BDM. […]

human cardiomyocytes [5] = experiment: Culture test: concentrations of (−)-Blebbistatin and para-aminoblebbistatin (Example 2.1); format: cell-based
Description: 10% fetal bovine serum, 100 U/ml penicillin and 100 μg/ml streptomycin were added to M199 medium (purchased from Sigma), and the resulting medium was used as the basal medium. The experiment was divided into 9 groups, i.e. 0, 2.5, 5, 10, or 20 μM (−)-Blebbistatin, or 5 μM, 10 μM, 20 μM, or 50 μM para-aminoblebbistatin was added to the basal medium. The isolated human cardiomyocytes were divided into 9 groups, and the cells using 9 culture media were plated on a 48-well cell culture plate precoated with 200 μg laminin, and placed and cultured in a 37° C. cell incubator (with 5% CO2, and a relative saturated humidity of 95%) for 7 days, and the rates of rod-shaped cardiomyocytes were calculated.

human cardiomyocytes [6] = experiment: Effect of coating composition on adherent cardiomyocytes (Example 2.2); format: cell-based; details: 72 hours; for number of rod-shaped cells: medium with 20 mM BDM
Description: 48-well culture plates were coated with the following reagents: laminin (Gibco, product number: 23017015; 50 μg/ml or 200 μg/ml, incubated overnight in a 37° C. incubator, and air dried), fibronectin (Sigma Aldrich, product number: F0895-2 MG; 5 μg/ml or 50 μg/ml, air dried), poly-L-lysine (Sigma Aldrich, product number: P04832-50 ML; 0.01%, incubated at room temperature for 5 min, air dried), and Matrigel (Corning, product number: 354234; incubated at 37° C. for 30 min). The culture medium used in this experiment was obtained by adding 20 mM BDM, 10% fetal bovine serum, 100 U/ml penicillin and 100 μg/ml streptomycin to M199 medium. The isolated cardiomyocytes were plated on coated 48-well culture plates, cultured for 72 hours (h), and photographed under a microscope. 4 fields of view were taken for each group for calculating the average number of rod-shaped cells, and the result was expressed as the mean±standard deviation.

## Cc1ccc(S(=O)(=O)NCc2ccccc2)cc1 [BTS, N-benzyl-p-toluenesulfonamide]
Human cardiomyocytes [1]; 5-50 μM vs 10 μM (−)-Blebbistatin
  percentages of rod-shaped cells: significantly lower than the percentage in the (−)-Blebbistatin group

## CC(=O)C(C)=NO [BDM, 2,3-butanedione monoxime]
Human cardiomyocytes [2]; 20 mM
  rod-shaped cell morphology after isolation (photomicrographs): not well maintained
Human cardiomyocytes [2]; 20 mM in calcium-free solution, reference of the normalization
  normalized rod-shaped cell rate: 1.0

## Cc1ccc2c(c1)C(=O)[C@]1(O)CCN(c3ccccc3)C1=N2 [(−)-Blebbistatin]
[3]
  solubility: 10.9 ± 0.9 µM (≈ 3.19 µg/mL)
Human cardiomyocytes [4]
  rate of rod-shaped cardiomyocytes: ≥ 80%
Human cardiomyocytes [5]; 5 μM and 10 μM vs 0 μM, after 1 day of culture
  state of cardiomyocytes (culture images): remarkably better than in the 0 μM group
Human cardiomyocytes [5]; 10 μM compared with 5 μM, 1 day, more obvious after 7 days
  long rod-shaped morphology of cardiomyocytes (culture images): better maintained the long rod-shaped morphology of cardiomyocytes
Human cardiomyocytes [5]; 2.5, 5, 10, 20 μM vs 0 μM, M199 + 10% FBS, 7 days, p<0.001
  rate of rod-shaped cells: remarkably higher than that in the group without (−)-Blebbistatin
Human cardiomyocytes [2]; 5 μM and 10 μM
  rod-shaped cell morphology after isolation (photomicrographs): can maintain the long rod-shaped morphology of human cardiomyocytes
Human cardiomyocytes [2]; 5 μM and 10 μM in calcium-free solution, 20 mM BDM group normalized to 1.0, p<0.05
  normalized rod-shaped cell rate: 1.2-1.5
Human cardiomyocytes [2]; 5 μM and 10 μM vs 20 mM BDM group, p<0.05
  lengths of human cardiomyocytes isolated: remarkably longer than those in the 20 mM BDM group

## CC(C)n1c(=O)cc(N[C@@H](C)c2ccccc2)[nH]c1=O [MYK-461]
Human cardiomyocytes [1]; 0.5-20 μM vs 10 μM (−)-Blebbistatin
  percentages of rod-shaped cells: significantly lower than the percentage in the (−)-Blebbistatin group

## laminin
Human cardiomyocytes [6]; coating 200 μg/ml
  number of rod-shaped cells: highest number of rod-shaped cells
Human cardiomyocytes [6]; coating, laminin 50-200 μg/ml
  adherence and growth of cardiomyocytes: can allow cardiomyocytes to adhere and grow

## Cc1ccc2c(c1)C(=O)[C@]1(O)CCN(c3ccc(N)cc3)C1=N2 [para-aminoblebbistatin]
Human cardiomyocytes [5]; 10 μM para-aminoblebbistatin vs 10 μM (−)-Blebbistatin, 7 days
  viability / survival rate of human cardiomyocytes: no statistical difference
Human cardiomyocytes [5]; 5-50 μM, 7 days
  survival rate of cardiomyocytes: can significantly improve the survival rate of cardiomyocytes

## fibronectin
Human cardiomyocytes [6]; coating 5 μg/ml, 50 μg/ml
  number of rod-shaped cells: significantly lower than that in the Matrigel group, 50 μg/ml laminin group and 200 μg/ml laminin group
